# According to ChEMBL document CHEMBL4130359, “Indazole-based ligands for estrogen-related receptor α as potential anti-diabetic agents” (Eur J Med Chem, 2017):
# Activity calls are given as the source filed them. No cut-off for these calls is given here.
# Experiments:
# Rattus norvegicus [1] = test: Toxicity in […] chronic ob/ob model assessed as epididymal white adipose tissue weight at 3 mg/kg, po qd for 31 days measured on day 32 (reference value: 3.92 +/- 0.14 g); format: organism-based; conditions: in vivo, 744 h
# Rattus norvegicus [2] = test: Effect on COX4I1 gene expression in epididymal white adipose tissue of Zucker rat sub-chronic fa/fa prediabetic model at 10 mg/kg, po qd for 15 days by microarray analysis relative to control; format: functional
# Rattus norvegicus [3] = test: Toxicity in […] chronic ob/ob model assessed as serum creatinine level at 3 mg/kg, po qd for 31 days measured on day 32 (reference value: 0.55 +/- 0.018 mg/dl); format: organism-based; conditions: in vivo, 744 h
# [4] = Cmax in Zucker rat sub-chronic fa/fa prediabetic model at 1 mg/kg, po qd for 26 days measured on day 26 post last dose; format: ADME, organism-based; set-up: dose 1 mg/kg, route oral; conditions: in vivo
# Rattus norvegicus [5] = test: Toxicity in Zucker rat sub-chronic fa/fa prediabetic model assessed as insulin level per gram pancreas at 50 mg/kg, po qd for 31 days measured on day 32 (reference value: 55.2 +/- 5.5 ug); format: organism-based; conditions: in vivo, 744 h
# [6] = Drug uptake in muscle of Zucker rat sub-chronic fa/fa prediabetic model at 12.5 mg/kg, po qd for 11 days; format: ADME, organism-based, Muscle tissue; conditions: read-out: Drug uptake
# Rattus norvegicus [7] = test: Antidiabetic activity in Zucker rat sub-chronic fa/fa prediabetic model assessed as decrease in plasma glucose AUC (0 to 120 mins) at 10 mg/kg, po qd during 10 days study by OGTT relative to control; format: functional; set-up: scale not given: the % may be the effect or the level left
# Rattus norvegicus [8] = test: Effect on ALDH3B1 gene expression in epididymal white adipose tissue of Zucker rat sub-chronic fa/fa prediabetic model at 10 mg/kg, po qd for 15 days by microarray analysis relative to control; format: functional
# Rattus norvegicus [9] = test: Toxicity in […] chronic ob/ob model assessed as brown adipose tissue weight at 50 mg/kg, po qd for 31 days measured on day 32 (reference value: 0.59 +/- 0.05 g); format: organism-based; conditions: in vivo, 744 h
# Rattus norvegicus [10] = test: Toxicity in Zucker rat sub-chronic fa/fa prediabetic model assessed as serum BUN level at 3 mg/kg, po qd for 31 days measured on day 32 (reference value: 28.3 +/- […]); format: organism-based; conditions: in vivo, 744 h
# Rattus norvegicus [11] = test: Antidiabetic activity in Zucker rat sub-chronic fa/fa prediabetic model assessed as reduction in blood glucose AUC (0 to 120 min) at 1 mg/kg, po qd for 31 days measured on day 29 post dose by OGTT relative to control; format: functional; set-up: scale not given: the % may be the effect or the level left
# [12] = molecular target: T1, Steroid hormone receptor ERR1 (Homo sapiens, UniProt P11474); test: Antagonist activity at His6-tagged ERRalpha LBD (unknown origin) assessed as inhibition of GST-tagged SRC-2 co-activator peptide recruitment after 18 hrs by TR-FRET assay
# T1 sequence (P11474 whole entry): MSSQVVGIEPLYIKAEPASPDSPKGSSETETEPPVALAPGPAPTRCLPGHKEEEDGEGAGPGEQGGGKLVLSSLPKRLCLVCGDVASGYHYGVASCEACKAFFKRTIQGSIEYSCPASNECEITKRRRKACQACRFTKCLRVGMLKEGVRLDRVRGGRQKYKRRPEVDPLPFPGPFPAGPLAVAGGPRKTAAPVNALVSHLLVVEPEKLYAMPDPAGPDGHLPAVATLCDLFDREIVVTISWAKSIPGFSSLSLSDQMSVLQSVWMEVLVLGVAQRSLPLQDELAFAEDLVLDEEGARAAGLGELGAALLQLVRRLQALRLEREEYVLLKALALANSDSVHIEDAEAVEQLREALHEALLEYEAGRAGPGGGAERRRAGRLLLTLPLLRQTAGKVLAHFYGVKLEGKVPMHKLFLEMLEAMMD
# Rattus norvegicus [13] = test: Antidiabetic activity in Zucker rat sub-chronic fa/fa prediabetic model assessed as serum adiponectin level at 1 mg/kg, po qd for 4 days by ELISA (reference value: 9.1%); format: functional
# Rattus norvegicus [14] = test: Effect on ACAT1 gene expression in epididymal white adipose tissue of Zucker rat sub-chronic fa/fa prediabetic model at 10 mg/kg, po qd for 15 days by microarray analysis relative to control; format: functional
# Rattus norvegicus [15] = test: Toxicity in Zucker rat sub-chronic fa/fa prediabetic model assessed as epididymal white adipose tissue weight at 50 mg/kg, po qd for 31 days measured on day 32 (reference value: 13.9 +/- 0.6 g); format: organism-based; conditions: in vivo, 744 h
# [16] = Cmax in Zucker rat sub-chronic fa/fa prediabetic model at 3 mg/kg, po qd measured on day 1 post dose; format: ADME, organism-based; set-up: dose 3 mg/kg, route oral; conditions: in vivo
# Rattus norvegicus [17] = test: Increase in ERRalpha mRNA expression in epididymal white adipose tissue of Zucker rat sub-chronic fa/fa prediabetic model at 10 mg/kg, po qd for 15 days by RT-PCR method; format: functional, organism-based
# Rattus norvegicus [18] = test: Effect on TNFRSF1B gene expression in epididymal white adipose tissue of Zucker rat sub-chronic fa/fa prediabetic model at 10 mg/kg, po qd for 15 days by microarray analysis relative to control; format: functional
# [19] = molecular target: Retinoic acid receptor beta (Homo sapiens, UniProt P10826); test: Agonist activity at recombinant GST-tagged human RARbeta LBD assessed as fluorescein-labeled coactivator peptide recruitment preincubated with enzyme followed by coactivator addition by LanthaScreen TR-FRET assay
# Chain of Retinoic acid receptor beta (P10826 whole entry, the tested form may be a part): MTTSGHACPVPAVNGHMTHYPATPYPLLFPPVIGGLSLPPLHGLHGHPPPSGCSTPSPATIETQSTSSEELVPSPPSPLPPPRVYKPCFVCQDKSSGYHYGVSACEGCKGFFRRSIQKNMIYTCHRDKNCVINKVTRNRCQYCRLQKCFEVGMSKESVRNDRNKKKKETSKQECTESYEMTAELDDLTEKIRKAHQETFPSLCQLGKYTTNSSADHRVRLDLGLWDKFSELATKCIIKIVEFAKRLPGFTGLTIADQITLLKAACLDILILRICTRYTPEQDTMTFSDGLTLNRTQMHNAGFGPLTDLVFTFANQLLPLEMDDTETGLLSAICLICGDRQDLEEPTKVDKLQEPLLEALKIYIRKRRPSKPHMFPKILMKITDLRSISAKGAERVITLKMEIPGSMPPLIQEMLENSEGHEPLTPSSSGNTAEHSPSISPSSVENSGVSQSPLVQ
# Rattus norvegicus [20] = test: Effect on CPT1A gene expression in epididymal white adipose tissue of Zucker rat sub-chronic fa/fa prediabetic model at 10 mg/kg, po qd for 15 days by microarray analysis relative to control; format: functional
# Rattus norvegicus [21] = test: Effect on IKBKB gene expression in epididymal white adipose tissue of Zucker rat sub-chronic fa/fa prediabetic model at 10 mg/kg, po qd for 15 days by microarray analysis relative to control; format: functional
# [22] = Tmax in […] at 15 mg/kg administered via oral gavage by LC-MS analysis; format: ADME, organism-based; conditions: in vivo
# [23] = Tmax in CD-1 mouse at 20 mg/kg administered via oral gavage by LC-MS analysis; format: ADME, organism-based; conditions: in vivo
# Rattus norvegicus [24] = test: Toxicity in Zucker rat sub-chronic fa/fa prediabetic model assessed as increase in body weight at 10 mg/kg, po qd during 10 days study; format: organism-based; conditions: in vivo, 240 h
# [25] = AUC (0 to 24 hrs) in Zucker rat sub-chronic fa/fa prediabetic model at 10 mg/kg, po qd for 26 days measured on day 26 post last dose; format: ADME, organism-based; set-up: dose 10 mg/kg, time < 24 hr, route oral; conditions: in vivo
# Rattus norvegicus [26] = test: Effect on MLYCD gene expression in epididymal white adipose tissue of Zucker rat sub-chronic fa/fa prediabetic model at 10 mg/kg, po qd for 15 days by microarray analysis relative to control; format: functional
# [27] = Oral bioavailability in CD-1 mouse at 20 mg/kg administered via gavage by LC-MS analysis; format: ADME, organism-based; conditions: in vivo
# Rattus norvegicus [28] = test: Effect on CTGF gene expression in epididymal white adipose tissue of Zucker rat sub-chronic fa/fa prediabetic model at 10 mg/kg, po qd for 15 days by microarray analysis relative to control; format: functional
# Estrogen receptor beta = Estrogen receptor beta (Homo sapiens, UniProt Q92731); test: Inhibition of fluormone ES2 binding to recombinant full length human ERbeta expressed in insect cells by fluorescence polarization assay
# Chain of Estrogen receptor beta (Q92731 whole entry): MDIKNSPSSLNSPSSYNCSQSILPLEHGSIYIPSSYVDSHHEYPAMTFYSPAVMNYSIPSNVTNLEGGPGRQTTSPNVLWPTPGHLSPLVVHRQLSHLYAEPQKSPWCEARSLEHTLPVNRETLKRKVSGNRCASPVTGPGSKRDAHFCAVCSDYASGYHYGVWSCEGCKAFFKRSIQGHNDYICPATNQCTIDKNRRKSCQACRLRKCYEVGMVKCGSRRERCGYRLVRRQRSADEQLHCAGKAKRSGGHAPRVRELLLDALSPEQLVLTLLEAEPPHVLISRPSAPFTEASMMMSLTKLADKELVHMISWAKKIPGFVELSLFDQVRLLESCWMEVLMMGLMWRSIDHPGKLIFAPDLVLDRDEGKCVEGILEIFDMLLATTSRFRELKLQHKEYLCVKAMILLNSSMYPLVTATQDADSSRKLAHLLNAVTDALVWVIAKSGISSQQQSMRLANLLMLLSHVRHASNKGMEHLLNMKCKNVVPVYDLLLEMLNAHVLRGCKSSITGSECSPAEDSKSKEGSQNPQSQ
# Rattus norvegicus [29] = test: Toxicity in Zucker rat sub-chronic fa/fa prediabetic model assessed as liver weight at 10 mg/kg, po qd for 31 days measured on day 32 (reference value: 28 +/- 1.6 g); format: organism-based; conditions: in vivo, 744 h
structure (smiles),measurement,setting,value
CN1CC[C@@H](N2C(=O)S/C(=C\c3ccc4c(cnn4Cc4ccc(Cl)cc4C(F)(F)F)c3)C2=O)[C@H](F)C1,Activity,Rattus norvegicus [1],3.44 g
same,fold change (FC),Rattus norvegicus [2],1.323
same,Activity,Rattus norvegicus [3],0.5 mg/dL
same,Cmax,[4],0.316 µg/mL
same,Activity,Rattus norvegicus [5],94 µg
same,concentration at 264 h,[6],2820 ng/g
same,Activity,Rattus norvegicus [7],-46%
same,fold change (FC),Rattus norvegicus [8],-1.554
same,Activity,Rattus norvegicus [9],1.31 g
same,Activity,Rattus norvegicus [10],26.3 mg/dL
same,Activity,Rattus norvegicus [11],23%
same,IC50,[12],0.023 µM
same,Activity,Rattus norvegicus [13],8.6%
same,fold change (FC),Rattus norvegicus [14],1.634
same,Activity,Rattus norvegicus [15],19.3 g
same,Cmax,[16],0.725 µg/mL
same,Activity,Rattus norvegicus [17],Active
same,fold change (FC),Rattus norvegicus [18],-1.505
same,EC50,[19],> 10 µM
same,fold change (FC),Rattus norvegicus [20],-1.277
same,fold change (FC),Rattus norvegicus [21],-1.241
same,Tmax,[22],2.5 h
same,Tmax,[23],1.5 h
same,Activity,Rattus norvegicus [24],Non-Toxic
same,AUC at 24 h,[25],23.9 µg·h/mL
same,fold change (FC),Rattus norvegicus [26],1.608
same,bioavailability,[27],52%
same,fold change (FC),Rattus norvegicus [28],1.458
same,IC50,Estrogen receptor beta,> 10 µM
same,Activity,Rattus norvegicus [29],18.5 g
